Measurements from US6506778B2, “Acylphenylurea derivatives, a process for their preparation and their use as pharmaceuticals” (Aventis Pharma Deutschland GmbH, priority 2000, dated 2003).

How the values were obtained:
[1] = biological target: T1, human glycogen phosphorylase a (Homo sapiens, UniProt P06737); assay: Glycogen phosphorylase a activity assay (reverse direction, liberation of inorganic phosphate); type: biochemical; conditions: 10 μM test substance; in vitro; incubated at room temperature for 40 minutes; absorption at 820 nm
T1 sequence (P06737 1-847): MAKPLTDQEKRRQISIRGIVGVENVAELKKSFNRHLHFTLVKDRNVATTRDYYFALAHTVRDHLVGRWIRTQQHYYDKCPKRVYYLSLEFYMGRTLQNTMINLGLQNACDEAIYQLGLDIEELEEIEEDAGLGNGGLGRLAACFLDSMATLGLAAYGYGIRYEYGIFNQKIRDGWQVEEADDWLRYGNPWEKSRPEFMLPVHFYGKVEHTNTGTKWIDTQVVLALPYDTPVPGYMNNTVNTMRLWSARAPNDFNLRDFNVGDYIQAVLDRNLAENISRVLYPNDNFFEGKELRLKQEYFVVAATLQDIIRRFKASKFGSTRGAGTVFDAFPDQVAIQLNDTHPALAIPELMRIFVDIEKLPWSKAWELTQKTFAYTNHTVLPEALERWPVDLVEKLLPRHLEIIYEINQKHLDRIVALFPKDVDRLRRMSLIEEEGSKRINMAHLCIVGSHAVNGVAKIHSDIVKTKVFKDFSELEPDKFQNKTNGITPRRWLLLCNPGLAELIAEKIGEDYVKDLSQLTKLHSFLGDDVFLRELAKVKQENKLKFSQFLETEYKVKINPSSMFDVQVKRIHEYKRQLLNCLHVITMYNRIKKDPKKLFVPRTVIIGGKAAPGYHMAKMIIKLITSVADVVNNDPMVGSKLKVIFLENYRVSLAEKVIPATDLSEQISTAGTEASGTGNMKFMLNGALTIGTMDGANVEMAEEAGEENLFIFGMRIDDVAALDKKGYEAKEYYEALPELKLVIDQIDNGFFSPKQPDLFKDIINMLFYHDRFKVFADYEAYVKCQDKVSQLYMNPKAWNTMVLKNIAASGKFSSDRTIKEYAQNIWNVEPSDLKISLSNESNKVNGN
Procedure: Glycogen Phosphorylase a Activity Assay
The effect of compounds on the activity of the active form of glycogen phosphorylase (GPa) was measured in the reverse direction by following the synthesis of glycogen from glucose 1-phosphate by determining the liberation of inorganic phosphate. All the reactions were carried out as duplicate determinations in microtiter plates with 96 wells (Half Area Plates, Costar No 3696), measuring the change in absorption owing to the formation of the reaction product at the wavelength specified hereinafter in a Multiskan Ascent Elisa Reader (Lab Systems, Finland).
In order to measure the GPa enzymic activity in the reverse direction, the general method of Engers et al. (Engers H D, Shechosky S, Madsen N B, Can J Biochem 1970 July; 48(7):746-754) was used to measure the conversion of glucose 1-phosphate into glycogen and inorganic phosphate. […] The baseline glycogen phosphorylase a activity in the absence of test substance was determined by adding 10 μl of buffer solution T (0.1% DMSO). […] After incubation at 45° C. for 60 minutes, the absorption at 820 nm was measured. […]

## O=C(O)CCCCCOc1c(Cl)cc(NC(=O)NC(=O)c2ccccc2Cl)cc1Cl [Example 1, 6-{2,6-Dichloro-4-[(2-chlorobenzoyl)ureido]phenoxy}hexanoic Acid]
[1]
  inhibition at 10 µM: 87%
other
  melting point: 164 °C
